Experimental data as given in patent US12577206B2 (BRISTOL-MYERS SQUIBB COMPANY, priority 2020, dated 2026).

Experiments:
human FPR2 = biological target: T1, human FPR2 (Homo sapiens, UniProt P25090); test: FPR2 cyclic adenosine monophosphate (cAMP) assay; assay type: cell-based; conditions: CHO cells overexpressing human FPR2; forskolin 5 μM; inhibition of cAMP production; HTRF; read-out: hFPR2 cAMP2 EC50
T1 sequence (P25090 1-351): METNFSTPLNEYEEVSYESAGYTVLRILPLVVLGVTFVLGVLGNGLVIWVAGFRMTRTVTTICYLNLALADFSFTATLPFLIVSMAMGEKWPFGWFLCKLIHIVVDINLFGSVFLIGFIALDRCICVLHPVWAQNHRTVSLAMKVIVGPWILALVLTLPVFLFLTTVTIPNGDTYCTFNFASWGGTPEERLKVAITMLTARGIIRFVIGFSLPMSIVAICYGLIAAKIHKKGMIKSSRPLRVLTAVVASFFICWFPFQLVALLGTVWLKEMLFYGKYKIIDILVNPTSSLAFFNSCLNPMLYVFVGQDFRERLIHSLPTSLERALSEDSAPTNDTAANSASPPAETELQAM
Procedure, shortened: (§1)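 Gi-coupled activity is read as suppression of forskolin-stimulated cAMP (10 μM final for FPR1, 5 μM final for FPR2; IBMX 200 μM final) in recombinant CHO cells, 30 min incubation at rt, HTRF detection.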

human FPR1 = biological target: T2, human FPR1 (Homo sapiens, UniProt P21462); test: FPR1 cyclic adenosine monophosphate (cAMP) assay; assay type: cell-based; conditions: CHO cells overexpressing human FPR1; forskolin 10 μM; inhibition of cAMP production; HTRF; read-out: hFPR1 cAMP2 EC50
T2 sequence (P21462 1-350): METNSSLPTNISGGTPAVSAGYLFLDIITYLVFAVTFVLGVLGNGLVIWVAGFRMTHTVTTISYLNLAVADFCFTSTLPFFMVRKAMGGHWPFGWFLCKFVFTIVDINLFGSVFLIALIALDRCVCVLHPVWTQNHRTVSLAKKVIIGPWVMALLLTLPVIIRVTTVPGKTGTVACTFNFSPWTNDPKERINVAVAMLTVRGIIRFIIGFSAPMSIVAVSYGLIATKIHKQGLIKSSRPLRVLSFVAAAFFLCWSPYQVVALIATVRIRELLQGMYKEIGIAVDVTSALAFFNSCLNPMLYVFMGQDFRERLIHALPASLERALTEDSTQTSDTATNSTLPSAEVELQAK
Procedure, shortened: as §1

Row | EC50 (human FPR2) [nM] | EC50 (human FPR1) [nM] | Compound
1 | 11 | 4800 | COc1cc(F)c(-c2c(NC(=O)c3ccc(OC(F)F)cc3)c(=O)n(-c3nc(N4CC(C)(O)C4)ccc3F)n2C)c(F)c1 [Example 210, N-[5-(2,6-difluoro-4-methoxyphenyl)-2-[3-fluoro-6-(3-hydroxy-3-methylazetidin-1-yl)pyridin-2-yl]-1-methyl-3-oxo-2,3-dihydro-1H-pyrazol-4-yl]-4-(difluoromethoxy)benzamide]
2 | 280 | > 10000 | COc1cc(F)c(-c2c(NC(=O)c3ccc(Cl)nc3)c(=O)n(-c3ccccc3)n2C)c(F)c1 [Example 25, 6-chloro-N-[5-(2,6-difluoro-4-methoxyphenyl)-1-methyl-3-oxo-2-phenyl-2,3-dihydro-1H-pyrazol-4-yl]pyridin-3-carboxamide]
3 | 5 | 900 | COc1cc(F)c(-c2c(NC(=O)c3ccc(OC(F)F)cc3)c(=O)n(-c3nccc(C4CCCCC4)c3C#N)n2C)c(F)c1 [Example 199, N-[2-(3-cyano-4-cyclohexylpyridin-2-yl)-5-(2,6-difluoro-4-methoxyphenyl)-1methyl-3-oxo-2,3-dihydro-1H-pyrazol-4-yl]-4-(difluoromethoxy)benzamide]
4 | 8 | 390 | [2H]C([2H])([2H])Oc1cc(F)c(-c2c(NC(=O)c3ccc(OC(F)(F)F)cc3)c(=O)n(-c3cccc(C(C)(C)O)n3)n2C)c(F)c1 [Example 405, N-(5-(2,6-difluoro-4-(methoxy-d3)phenyl)-2-(6-(2-hydroxypropan-2-yl)pyridin-2-yl)-1-methyl-3-oxo-2,3-dihydro-1H-pyrazol-4-yl)-4-(trifluoromethoxy)benzamide]
5 | 3 | 730 | COc1cc(F)c(-c2c(NC(=O)c3ccc(OC(F)F)cc3)c(=O)n(-c3nc(N(C)C)ccc3Cl)n2C)c(F)c1 [Example 147, N-{2-[3-chloro-6-(dimethylamino)pyridin-2-yl]-5-(2,6-difluoro-4-methoxyphenyl)-1-methyl-3-oxo-2,3-dihydro-1H-pyrazol-4-yl}-4-(difluoromethoxy)benzamide]
6 | 21 | 1500 | COc1cc(F)c(-c2c(NC(=O)c3ccc(OC(F)F)cc3)c(=O)n(-c3cccc(N4CC(C)(C)C4)n3)n2C)c(F)c1 [Example 218, N-[5-(2,6-difluoro-4-methoxyphenyl)-2-[6-(3,3-dimethylazetidin-1-yl)pyridin-2-yl]-1-methyl-3-oxo-2,3-dihydro-1H-pyrazol-4-yl]-4-(difluoromethoxy)benzamide]
7 | 10 | > 10000 | CNC(=O)CN(C)c1ccc(C(F)(F)F)c(-n2c(=O)c(NC(=O)c3ccc(OC(F)F)cc3)c(-c3c(F)cc(OC)cc3F)n2C)n1 [Example 260, N-[5-(2,6-difluoro-4-methoxyphenyl)-1-methyl-2-(6-{methyl[(methylcarbamoyl)methyl]amino}-3-(trifluoromethyl)pyridin-2-yl)-3-oxo-2,3-dihydro-1H-pyrazol-4-yl]-4-(difluoromethoxy)benzamide]
8 | 12 | 1600 | Cn1c(-c2c(F)cc(Cl)cc2F)c(NC(=O)c2ccc(OC(F)(F)F)cc2)c(=O)n1-c1cccc(C(C)(C)O)n1 [Example 406, N-(5-(4-chloro-2,6-difluorophenyl)-2-(6-(2-hydroxypropan-2-yl)pyridin-2-yl)-1-methyl-3-oxo-2,3-dihydro-1H-pyrazol-4-yl)-4-(trifluoromethoxy)benzamide]
9 | 5 | > 10000 | COc1cc(C2CCCNC2)nc(-n2c(=O)c(NC(=O)c3ccc(OC(F)F)cc3)c(-c3c(F)cc(OC)cc3F)n2C)c1 (stereo not drawn) [Example 346, N-(5-(2,6-Difluoro-4-methoxyphenyl)-2-(4-methoxy-6-(piperidin-3-yl)pyridin-2-yl)-1-methyl-3-oxo-2,3-dihydro-1H-pyrazol-4-yl)-4-(difluoromethoxy)benzamide]
10 | 8 | > 10000 | COc1cc(F)c(-c2c(NC(=O)c3ccc(OC(F)F)cc3)c(=O)n(-c3cc(C)cc(C)n3)n2C)c(F)c1 [Example 65, N-[5-(2,6-difluoro-4-methoxyphenyl)-2-(4,6-dimethylpyridin-2-yl)-1-methyl-3-oxo-2,3-dihydro-1H-pyrazol-4-yl]-4-(difluoromethoxy)benzamide]
11 | 3 | > 10000 | COc1cc(OCC(C)(C)F)nc(-n2c(=O)c(NC(=O)c3ccc(OC(F)F)cc3)c(-c3c(F)cc(OC)cc3F)n2C)c1 [Example 385, N-(5-(2,6-Difluoro-4-methoxyphenyl)-2-(6-(2-fluoro-2-methylpropoxy)-4-methoxypyridin-2-yl)-1-methyl-3-oxo-2,3-dihydro-1H-pyrazol-4-yl)-4-(difluoromethoxy)benzamide]
12 | 5 | 630 | COc1cc(F)c(-c2c(NC(=O)c3ccc(OC(F)F)cc3)c(=O)n(-c3nc(N4CCN(S(C)(=O)=O)CC4)ccc3Cl)n2C)c(F)c1 [Example 247, N-{2-[3-chloro-6-(4-methanesulfonylpiperazin-1-yl)pyridin-2-yl]-5-(2,6-difluoro-4-methoxyphenyl)-1-methyl-3-oxo-2,3-dihydro-1H-pyrazol-4-yl}-4-(difluoromethoxy)benzamide]
13 | 4 | 6000 | COC(=O)c1cc(Cl)cc(-n2c(=O)c(NC(=O)c3ccc(OC(F)F)cc3)c(-c3c(F)cc(OC)cc3F)n2C)c1 [Example 120, methyl 3-chloro-5-[3-(2,6-difluoro-4-methoxyphenyl)-4-[4-(difluoromethoxy)benzamido]-2-methyl-5-oxo-2,5-dihydro-1H-pyrazol-1-yl]benzoate]
14 | 3 | 210 | COc1cc(F)c(-c2c(NC(=O)c3ccc(OC(F)F)cc3)c(=O)n(-c3ccc4ccccc4n3)n2C)c(F)c1 [Example 60, N-[5-(2,6-difluoro-4-methoxyphenyl)-1-methyl-3-oxo-2-(quinolin-2-yl)-2,3-dihydro-1H-pyrazol-4-yl]-4-(difluoromethoxy)benzamide]
15 | 13 | 2700 | COc1cc(F)c(-c2c(NC(=O)c3ccc(OC(F)(F)F)cc3)c(=O)n(-c3cc(C)ccn3)n2C)c(F)c1 [Example 151, N-[5-(2,6-difluoro-4-methoxyphenyl)-1-methyl-2-(4-methylpyridin-2-yl)-3-oxo-2,3-dihydro-1H-pyrazol-4-yl]-4-(trifluoromethoxy)benzamide]
16 | 3 | > 5000 | COc1cc(F)c(-c2c(NC(=O)c3ccc(OC(F)F)cc3)c(=O)n(-c3nc(NC[C@@H](C)O)ccc3C(F)(F)F)n2C)c(F)c1 [Example 273]
17 | 8 | > 10000 | COc1cc(F)c(-c2c(NC(=O)c3ccc(OC(F)F)cc3)c(=O)n(-c3cccc(OC)c3C#N)n2C)c(F)c1 [Example 184, N-[2-(2-cyano-3-methoxyphenyl)-5-(2,6-difluoro-4-methoxyphenyl)-1-methyl-3-oxo-2,3-dihydro-1H-pyrazol-4-yl]-4-(difluoromethoxy)benzamide]
18 | 150 | 3000 | COc1cc(F)c(-c2c(NC(=O)c3ccc(-n4cccn4)cc3)c(=O)n(-c3ccccc3)n2C)c(F)c1 [Example 23, N-[5-(2,6-difluoro-4-methoxyphenyl)-1-methyl-3-oxo-2-phenyl-2,3-dihydro-1H-pyrazol-4-yl]-4-(1H-pyrazol-1-yl)benzamide]
19 | 14 | 1800 | Cn1c(-c2ccc(OC(F)F)cc2)c(NC(=O)c2ccc(OC(F)F)cc2)c(=O)n1-c1nc(Cl)ccc1C(F)(F)F [Example 317, N-{2-[6-chloro-3-(trifluoromethyl)pyridin-2-yl]-5-[4-(difluoromethoxy)phenyl]-1-methyl-3-oxo-2,3-dihydro-1H-pyrazol-4-yl}-4-(difluoromethoxy)benzamide]
20 | 2 | 3900 | COc1cc(F)c(-c2c(NC(=O)c3ccc(OC(F)F)cc3)c(=O)n(-c3nc(N4CCC(C(N)=O)C4)ccc3C(F)(F)F)n2C)c(F)c1 (stereo not drawn) [Example 305, 1-{6-[3-(2,6-difluoro-4-methoxyphenyl)-4-[4-(difluoromethoxy)benzamido]-2-methyl-5-oxo-2,5-dihydro-1H-pyrazol-1-yl]-5-(trifluoromethyl)pyridin-2-yl}pyrrolidine-3-carboxamide]
21 | 14 | > 10000 | COc1cc(F)c(-c2c(NC(=O)c3ccc(OC(F)F)cc3)c(=O)n(-c3nc(CO)ccc3C(F)(F)F)n2C)c(F)c1 [Example 195, N-[5-(2,6-difluoro-4-methoxyphenyl)-2-[6-(hydroxymethyl)-3-(trifluoromethyl)pyridin-2-yl]-1-methyl-3-oxo-2,3-dihydro-1H-pyrazol-4-yl]-4-(difluoromethoxy)benzamide]
